According to patent publication US20130123360A1, “METHODS AND USES RELATING TO THE IDENTIFICATION OF COMPOUND ASSOCIATED WITH BACTERIAL INFECTION” (SANOFI-AVENTIS DEUTSCHLAND GMBH, priority 2010, published 2013):
Several values for one entry are separate records, joined by “and”; a condition that tells them apart may be missing. Equal entries are not always repeated. Where two headings read alike, the source gives them in different places.

Legend:
PqsD protein [1] = molecular target: T1, PqsD protein (Pseudomonas aeruginosa, UniProt P20582); assay: Inhibition of HHQ formation by PqsD in vitro (HPLC-MS2 quantification of HHQ); assay type: biochemical, Pseudomonas aeruginosa UCBPP-PA14; conditions: 0.2 mM anthraniloyl-CoA, 0.35 mM 3-oxodecanoic acid, 1 μg PqsD, 2 min preincubation, 2 min at 37° C., pH 8.0
T1 construct: The 1-kb NdeI-EcoRI fragment of pqsD was cloned between the NdeI and EcoRI sites of pET28b(+), resulting in pET28b(+)-pqsD; fused on or other part: N-terminal His tag from pET28b(+)
T1 sequence (P20582 1-337): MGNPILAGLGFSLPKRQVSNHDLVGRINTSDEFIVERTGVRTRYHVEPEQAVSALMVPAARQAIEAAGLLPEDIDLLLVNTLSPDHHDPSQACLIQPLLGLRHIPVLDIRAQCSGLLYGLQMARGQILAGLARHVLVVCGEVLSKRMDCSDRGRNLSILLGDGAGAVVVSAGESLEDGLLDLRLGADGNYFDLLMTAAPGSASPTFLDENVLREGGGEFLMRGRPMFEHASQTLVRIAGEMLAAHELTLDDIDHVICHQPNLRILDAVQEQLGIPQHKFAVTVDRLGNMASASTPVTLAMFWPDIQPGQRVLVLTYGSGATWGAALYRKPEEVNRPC
Protocol: Experimental protocol. With the PqsD assay established so far, it is possible to screen for possible inhibitors of HHQ formation by PqsD in vitro. For this purpose the concentrations of anthraniloyl-CoA, 3-oxodecanoic acid and PqsD protein are assigned to fixed values. At first PqsD, anthraniloyl-CoA and the compound to be tested are preincubated for a fixed period. The putative inhibitor is added to the assay in increasing concentrations. The reaction is started by the addition of 3-oxodecanoic acid and incubated for a fixed period. Then the reaction is quenched by the addition of methanol to a final concentration of 50 percent. For each reaction the HHQ formation is quantified by HPLC/MS^2. By comparing the amounts of HHQ formed in presence of the different concentrations of the inhibitor to that of a control reaction without inhibitor, it can be calculated for the inhibitor concentration at which HHQ formation is 50 percent of the control reaction (IC50). […]
HHQ quantification by HPLC-MS^2—HPLC-MS analysis was carried out using a HPLC system from the Agilent 1100 series coupled to a Brucker Daltonics HCTultra ESI-MS iontrap instrument operated in positive ionization mode. […] For HHQ quantification the signal intensities of fragment ion 159.0 Da created by fragmentation of 244.0 Da were used. […]

PqsD protein [2] = molecular target: T1, PqsD protein; assay: Determination of kinetic parameters of PqsD (HHQ formation, HPLC-MS2); assay type: biochemical, Pseudomonas aeruginosa UCBPP-PA14
Protocol: Experimental protocol. […] The carbon-carbon bond formation between carbons 3 and 4 of the quinoline ring is likely to be catalyzed by one of the proteins PqsB, PqsC or PqsD which show all homology to the β-ketoacyl-acyl carrier protein synthase III family. To test of whether PqsD is necessary for HHQ formation, we purified recombinant PqsD protein and tried to readjust HHQ formation in vitro. The heterologous protein was incubated with anthraniloyl-CoA and 3-oxodecanoic acid and the reaction was analyzed by HPLC-MS.
HHQ quantification by HPLC-MS^2—HPLC-MS analysis was carried out using a HPLC system from the Agilent 1100 series coupled to a Brucker Daltonics HCTultra ESI-MS iontrap instrument operated in positive ionization mode. For separation a Onyx Monolythic C18 column (50×2 mm, Phenomenex) was used. […] For HHQ quantification the signal intensities of fragment ion 159.0 Da created by fragmentation of 244.0 Da were used. For creation of the standard curve HHQ standards containing 1, 5, 10, 20, 50, 100 and 200 ng ml^−1 were measured.
The reaction mixtures contained 50 mM Tris-HCl, pH 8.0, PqsD protein (1 μg), 0.2 mM anthraniloyl-CoA and 3-oxodecanoic acid ranging in concentration from 0.02 to 2 mM in a total volume of 50 μl. […] HHQ was quantified by HPLC by injecting 10 μl of the reaction mixture. […]

SMILES	IC50 (PqsD protein [1])	Km (PqsD protein [2]; fixed anthraniloyl-CoA 200 μM, varied 3-oxodecanoic acid 0.02 to 2 mM, 37° C., pH 8.0, triplicates, read-out: Km value of PqsD for 3-oxodecanoic acid)	Km (PqsD protein [2]; fixed anthraniloyl-CoA, varied 3-oxodecanoic acid concentrations, FIG. 4, read-out: Km value of PqsD (figure legend))
O=C(Nc1ccccc1C(=O)O)c1ccc(-c2ccccc2)c(Oc2ccccc2)c1 [2-[(2-phenoxybiphenyl-4-carbonyl)amino]benzoic acid]	35 µM and ~35 µM	–	–
CCCCCCCC(=O)CC(=O)O [3-oxodecanoic acid]	–	562 ± 91 µM	560 µM
